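96-well plates; 48 h exposure; 5 concentrations. Endpoints by linear interpolation between flanking doses. Not reached: highest tested concentration assigned. At the GI50, growth is halved.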 Calls of active or inactive are those of the source. Cut-off read from the data, not from the text of the source: active = GI50 up to about 1.1 µM and inactive = higher.
Columns and labels:
Test in all cases: DTP human tumour cell line panel, 48 h
COLO 205 = system: COLO 205
MDA-MB-231 = system: MDA-MB-231
HCC 2998 = system: HCC 2998
SN12C = system: SN12C
OVCAR-3 = system: OVCAR-3
A498 = system: A498
786-0 = system: 786-0
HL-60 = system: HL-60
SK-OV-3 = system: SK-OV-3
OVCAR-8 = system: OVCAR-8
ACHN = system: ACHN
EKVX = system: EKVX
HCT-15 = system: HCT-15
U-251 = system: U-251
SNB-19 = system: SNB-19
MDA-N = system: MDA-N
SF-268 = system: SF-268
BT-549 = system: BT-549
DU-145 = system: DU-145
RPMI-8226 = system: RPMI-8226

SMILES	GI50 (COLO 205)	GI50 (MDA-MB-231)	GI50 (HCC 2998)	GI50 (SN12C)	GI50 (OVCAR-3)	GI50 (A498)	GI50 (786-0)	GI50 (HL-60)	GI50 (SK-OV-3)	GI50 (OVCAR-8)	GI50 (ACHN)	GI50 (EKVX)	GI50 (HCT-15)	GI50 (U-251)	GI50 (SNB-19)	GI50 (MDA-N)	GI50 (SF-268)	GI50 (BT-549)	GI50 (DU-145)	GI50 (RPMI-8226)
CCc1cc(Cc2cc(CC)c(NC(=O)C(=O)CC(=O)c3sc(-c4cccnc4)nc3C)c(CC)c2)cc(CC)c1NC(=O)C(=O)CC(=O)c1sc(-c2cccnc2)nc1C	> 100 µM (inactive)	> 100 µM (inactive)	> 100 µM (inactive)	> 100 µM (inactive)	> 100 µM (inactive)	> 100 µM (inactive)	> 100 µM (inactive)	> 100 µM (inactive)	> 100 µM (inactive)	> 100 µM (inactive)	> 100 µM (inactive)	> 100 µM (inactive)	> 100 µM	> 100 µM (inactive)	> 100 µM (inactive)	> 100 µM (inactive)	> 100 µM (inactive)	> 100 µM (inactive)	> 100 µM (inactive)	> 100 µM (inactive)
NS(=O)(=O)c1ccc(NNc2c3ccccc3nc3c(C(=O)Nc4ccc(S(N)(=O)=O)cc4)cccc23)cc1	39.9 µM (inactive)	21.6 µM (inactive)	17.4 µM (inactive)	31.5 µM (inactive)	23 µM (inactive)	> 100 µM (inactive)	15.6 µM (inactive)	22.3 µM (inactive)	50 µM (inactive)	26.5 µM (inactive)	27.7 µM (inactive)	42.8 µM (inactive)	> 100 µM	14.5 µM (inactive)	33.5 µM (inactive)	65 µM (inactive)	16.2 µM (inactive)	5.85 µM (inactive)	43.8 µM (inactive)	24.9 µM (inactive)

— ChEMBL document CHEMBL1201862, “PubChem BioAssay data set” (2004)
